Assay results from ChEMBL document CHEMBL4052697, “Chimeric analogs of human β-defensin 1 and θ-defensin disrupt pre-established bacterial biofilms” (2017).
In brackets after ≈: the same amount, converted by molar mass. Activity calls are given as the source filed them. No cut-off for these calls is given here. Non-standard residues stand in square brackets, D forms with d. Residues, ends and D or L forms follow the SMILES beside them. NMeA = CN[C@@H](C)C(=O)O

Key:
Assay type in all cases: functional
[1] = tested on: Staphylococcus aureus; experiment: Bactericidal activity against Staphylococcus aureus NCTC 8530 planktonic forms
[2] = tested on: Escherichia coli; experiment: Antibiofilm activity against pre-established 36 hrs old bacterial biofilms of Escherichia coli MG1655 incubated for 4 hrs by XTT assay
[3] = tested on: Escherichia coli; experiment: Bactericidal activity against Escherichia coli MG1655 planktonic forms
[4] = tested on: Staphylococcus aureus; experiment: Antibiofilm activity against pre-established 36 hrs old bacterial biofilms of Staphylococcus aureus NCTC 8530 incubated for 4 hrs by XTT assay

Row | SMILES | MBC [1] [µM] | MBEC [2] | MBC [3] [µM] | MBEC [4]
1 | CCCCCCCCCCCCCC(=O)N[C@@H](CCC(=O)O)C(=O)N[C@@H](CC(C)C)C(=O)N[C@@H](CC(=O)O)C(=O)N[C@@H](CCCNC(=N)N)C(=O)N[C@H](C(=O)NCC(=O)N[C@@H](Cc1ccc(O)cc1)C(=O)NCC(=O)N[C@H](C(=O)N[C@@H](C)C(=O)N[C@@H](CCCNC(=N)N)C(=O)N[C@@H](CCCNC(=N)N)C(=O)N[C@H](CCCCN)C(=O)N[C@H](CCCCN)C(=O)N[C@@H](CCCNC(=N)N)C(=O)O)[C@@H](C)O)[C@@H](C)CC | 10 (≈ 20.3 µg/mL) | inactive | 5 (≈ 10.1 µg/mL) | inactive
2 | CCCCCCCCCCCC(=O)N[C@@H](C)C(=O)N[C@H](C(=O)N[C@@H](Cc1ccc(O)cc1)C(=O)N[C@H](CCCNC(=N)N)C(=O)N[C@H](C(=O)NCC(=O)N[C@H](CCCNC(=N)N)C(=O)N[C@@H](C)C(=O)N[C@H](C(=O)N[C@H](CCCNC(=N)N)C(=O)N[C@@H](CCC(=O)O)C(=O)N[C@@H](CO)C(=O)N[C@@H](CC(C)C)C(=O)N[C@@H](CO)C(=O)NCC(=O)N[C@H](C(=O)N[C@@H](CCC(=O)O)C(=O)N[C@H](C(=O)N[C@@H](CO)C(=O)NCC(=O)N[C@H](CCCNC(=N)N)C(=O)N[C@@H](CC(C)C)C(=O)N[C@@H](Cc1ccc(O)cc1)C(=O)N[C@H](CCCNC(=N)N)C(=O)N[C@@H](CC(C)C)C(=O)N[C@@H](CCCNC(=N)N)C(=O)O)[C@@H](C)CC)C(C)C)[C@@H](C)O)[C@@H](C)O)[C@@H](C)O | 20 (≈ 63 µg/mL) | inactive | 10 (≈ 31.5 µg/mL) | inactive
3 | CCCCCCCCCCCCCC(=O)N[C@@H](C)C(=O)N[C@H](C(=O)N[C@@H](Cc1ccc(O)cc1)C(=O)N[C@H](CCCNC(=N)N)C(=O)N[C@H](C(=O)NCC(=O)N[C@H](CCCNC(=N)N)C(=O)N[C@@H](C)C(=O)N[C@H](C(=O)N[C@H](CCCNC(=N)N)C(=O)N[C@@H](CCC(=O)O)C(=O)N[C@@H](CO)C(=O)N[C@@H](CC(C)C)C(=O)N[C@@H](CO)C(=O)NCC(=O)N[C@H](C(=O)N[C@@H](CCC(=O)O)C(=O)N[C@H](C(=O)N[C@@H](CO)C(=O)NCC(=O)N[C@H](CCCNC(=N)N)C(=O)N[C@@H](CC(C)C)C(=O)N[C@@H](Cc1ccc(O)cc1)C(=O)N[C@H](CCCNC(=N)N)C(=O)N[C@@H](CC(C)C)C(=O)N[C@@H](CCCNC(=N)N)C(=O)O)[C@@H](C)CC)C(C)C)[C@@H](C)O)[C@@H](C)O)[C@@H](C)O | 7.5 (≈ 23.8 µg/mL) | inactive | 5 (≈ 15.9 µg/mL) | inactive
4 | CC[C@H](C)[C@H](NC(=O)[C@H](CCC(=O)O)NC(=O)[C@@H](NC(=O)CNC(=O)[C@H](CO)NC(=O)[C@H](CC(C)C)NC(=O)[C@H](CO)NC(=O)[C@H](CCC(=O)O)NC(=O)[C@H](CCCNC(=N)N)NC(=O)[C@@H](NC(=O)[C@H](C)NC(=O)[C@H](CCCNC(=N)N)NC(=O)CNC(=O)[C@@H](NC(=O)[C@H](CCCNC(=N)N)NC(=O)[C@H](Cc1ccc(O)cc1)NC(=O)[C@@H](NC(=O)[C@H](C)N)[C@@H](C)O)[C@@H](C)O)[C@@H](C)O)C(C)C)C(=O)N[C@@H](CO)C(=O)NCC(=O)N[C@@H](CCCNC(=N)N)C(=O)N[C@@H](CC(C)C)C(=O)N[C@@H](Cc1ccc(O)cc1)C(=O)N[C@@H](CCCNC(=N)N)C(=O)N[C@@H](CC(C)C)C(=O)N[C@@H](CCCNC(=N)N)C(=O)O | > 100 | inactive | 50 (≈ 148 µg/mL) | inactive
5 | CCCCCCCCCCCCCC(=O)N[C@@H](C)C(=O)N[C@@H](Cc1ccccc1)C(=O)N[C@H](C(=O)N[C@H](CCCNC(=N)N)C(=O)N[C@H](CCCNC(=N)N)C(=O)N[C@H](CCCNC(=N)N)C(=O)N[C@@H](CO)C(=O)N[C@@H](Cc1ccc(O)cc1)C(=O)N[C@@H](CO)C(=O)N[C@H](C(=O)N[C@@H](CCC(=O)O)C(=O)N[C@@H](Cc1ccc(O)cc1)C(=O)N[C@@H](CO)C(=O)N[C@@H](Cc1ccc(O)cc1)C(=O)NCC(=O)N[C@H](C(=O)N[C@H](C(=O)N[C@H](C(N)=O)C(C)C)[C@@H](C)O)[C@@H](C)O)[C@@H](C)O)[C@@H](C)O | 50 (≈ 118 µg/mL) | inactive | 20 (≈ 47.1 µg/mL) | inactive
6 | CCCCCCCCCCCCCC(=O)N[C@@H](C)C(=O)N[C@H](C(=O)N[C@@H](Cc1ccc(O)cc1)C(=O)N[C@@H](CCCNC(=N)N)C(=O)N[C@H](C(=O)NCC(=O)N[C@@H](CCCNC(=N)N)C(=O)N[C@@H](C)C(=O)N[C@H](C(=O)N[C@@H](CCCNC(=N)N)C(=O)N[C@@H](CCC(=O)O)C(=O)N[C@@H](CO)C(=O)N[C@@H](CC(C)C)C(=O)N[C@@H](CO)C(=O)NCC(=O)N[C@H](C(=O)N[C@@H](CCC(=O)O)C(=O)N[C@H](C(=O)N[C@@H](CO)C(=O)NCC(=O)N[C@@H](CCCNC(=N)N)C(=O)N[C@@H](CC(C)C)C(=O)N[C@@H](Cc1ccc(O)cc1)C(=O)N[C@@H](CCCNC(=N)N)C(=O)N[C@@H](CC(C)C)C(=O)N[C@@H](CCCNC(=N)N)C(=O)O)[C@@H](C)CC)C(C)C)[C@@H](C)O)[C@@H](C)O)[C@@H](C)O | 7.5 (≈ 23.8 µg/mL) | inactive | 5 (≈ 15.9 µg/mL) | inactive
7 | CC[C@H](C)[C@H](NC(=O)[C@H](CCCNC(=N)N)NC(=O)[C@H](CC(=O)O)NC(=O)[C@H](CC(C)C)NC(=O)[C@@H](N)CCC(=O)O)C(=O)NCC(=O)N[C@@H](Cc1ccc(O)cc1)C(=O)NCC(=O)N[C@H](C(=O)N[C@@H](C)C(=O)N[C@@H](CCCNC(=N)N)C(=O)N[C@@H](CCCNC(=N)N)C(=O)N[C@H](CCCCN)C(=O)N[C@H](CCCCN)C(=O)N[C@@H](CCCNC(=N)N)C(=O)O)[C@@H](C)O | 60 (≈ 109 µg/mL) | inactive | 20 (≈ 36.4 µg/mL) | inactive
8 | CC[C@H](C)[C@H](NC(=O)[C@H](CCC(=O)O)NC(=O)[C@@H](NC(=O)CNC(=O)[C@H](CO)NC(=O)[C@H](CC(C)C)NC(=O)[C@H](CO)NC(=O)[C@H](CCC(=O)O)NC(=O)[C@@H](CCCNC(=N)N)NC(=O)[C@@H](NC(=O)[C@H](C)NC(=O)[C@@H](CCCNC(=N)N)NC(=O)CNC(=O)[C@@H](NC(=O)[C@@H](CCCNC(=N)N)NC(=O)[C@H](Cc1ccc(O)cc1)NC(=O)[C@@H](NC(=O)[C@H](C)N)[C@@H](C)O)[C@@H](C)O)[C@@H](C)O)C(C)C)C(=O)N[C@@H](CO)C(=O)NCC(=O)N[C@H](CCCNC(=N)N)C(=O)N[C@@H](CC(C)C)C(=O)N[C@@H](Cc1ccc(O)cc1)C(=O)N[C@H](CCCNC(=N)N)C(=O)N[C@@H](CC(C)C)C(=O)N[C@@H](CCCNC(=N)N)C(=O)O | > 100 | inactive | 50 (≈ 148 µg/mL) | inactive
9 | CC[C@H](C)[C@H](NC(=O)CNC(=O)[C@H](CCCNC(=N)N)NC(=O)[C@@H](NC(=O)[C@@H](NC(=O)[C@@H](NC(=O)CNC(=O)[C@H](Cc1ccc(O)cc1)NC(=O)[C@H](CCCNC(=N)N)NC(=O)[C@H](Cc1ccc(O)cc1)NC(=O)[C@H](CCC(=O)O)NC(=O)[C@@H](NC(=O)[C@H](CO)NC(=O)[C@H](Cc1ccc(O)cc1)NC(=O)[C@H](CO)NC(=O)[C@H](CCCNC(=N)N)NC(=O)[C@H](CCCNC(=N)N)NC(=O)[C@H](Cc1cnc[nH]1)NC(=O)[C@@H](NC(=O)[C@H](Cc1ccccc1)NC(=O)[C@H](C)NC)[C@@H](C)O)[C@@H](C)O)[C@@H](C)O)[C@@H](C)O)C(C)C)C(=O)N[C@@H](CCCNC(=N)N)C(=O)N[C@@H](Cc1cnc[nH]1)C(=O)N[C@@H](CCCNC(=N)N)C(=O)N[C@@H](Cc1ccccc1)C(=O)N[C@@H](CC(C)C)C(=O)O (H-[NMeA]FTHRRSYSTEYRYGTTVRGIRHRFL-OH) | 10 (≈ 32.5 µg/mL) | inactive | 10 (≈ 32.5 µg/mL) | inactive
10 | CCCCCCCCCCCCCC(=O)N[C@@H](CCC(=O)O)C(=O)N[C@@H](CC(C)C)C(=O)N[C@@H](CC(=O)O)C(=O)N[C@H](CCCNC(=N)N)C(=O)N[C@H](C(=O)NCC(=O)N[C@@H](Cc1ccc(O)cc1)C(=O)NCC(=O)N[C@H](C(=O)N[C@@H](C)C(=O)N[C@H](CCCNC(=N)N)C(=O)N[C@H](CCCNC(=N)N)C(=O)N[C@@H](CCCCN)C(=O)N[C@@H](CCCCN)C(=O)N[C@@H](CCCNC(=N)N)C(=O)O)[C@@H](C)O)[C@@H](C)CC | 10 (≈ 20.3 µg/mL) | inactive | 5 (≈ 10.1 µg/mL) | inactive
11 | CCCCCCCCCCCC(=O)N[C@@H](C)C(=O)N[C@H](C(=O)N[C@@H](Cc1ccc(O)cc1)C(=O)N[C@@H](CCCNC(=N)N)C(=O)N[C@H](C(=O)NCC(=O)N[C@@H](CCCNC(=N)N)C(=O)N[C@@H](C)C(=O)N[C@H](C(=O)N[C@@H](CCCNC(=N)N)C(=O)N[C@@H](CCC(=O)O)C(=O)N[C@@H](CO)C(=O)N[C@@H](CC(C)C)C(=O)N[C@@H](CO)C(=O)NCC(=O)N[C@H](C(=O)N[C@@H](CCC(=O)O)C(=O)N[C@H](C(=O)N[C@@H](CO)C(=O)NCC(=O)N[C@@H](CCCNC(=N)N)C(=O)N[C@@H](CC(C)C)C(=O)N[C@@H](Cc1ccc(O)cc1)C(=O)N[C@@H](CCCNC(=N)N)C(=O)N[C@@H](CC(C)C)C(=O)N[C@@H](CCCNC(=N)N)C(=O)O)[C@@H](C)CC)C(C)C)[C@@H](C)O)[C@@H](C)O)[C@@H](C)O | 2 (≈ 6.3 µg/mL) | inactive | 20 (≈ 63 µg/mL) | inactive
12 | CCCCCCCCCCCCCC(=O)N[C@@H](C)C(=O)N[C@@H](Cc1ccccc1)C(=O)N[C@H](C(=O)N[C@@H](CCCNC(=N)N)C(=O)N[C@@H](CCCNC(=N)N)C(=O)N[C@@H](CCCNC(=N)N)C(=O)N[C@@H](CO)C(=O)N[C@@H](Cc1ccc(O)cc1)C(=O)N[C@@H](CO)C(=O)N[C@H](C(=O)N[C@@H](CCC(=O)O)C(=O)N[C@@H](Cc1ccc(O)cc1)C(=O)N[C@@H](CO)C(=O)N[C@@H](Cc1ccc(O)cc1)C(=O)NCC(=O)N[C@H](C(=O)N[C@H](C(=O)N[C@H](C(N)=O)C(C)C)[C@@H](C)O)[C@@H](C)O)[C@@H](C)O)[C@@H](C)O | 20 (≈ 47.1 µg/mL) | inactive | 10 (≈ 23.5 µg/mL) | inactive
